The values that follow come from PubChem BioAssay (NCI).

Values joined by “and” are separate entries in the source; they are usually repeats but may differ in a detail not shown here. Equal values may be shown once.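 Each compound was tested at five concentrations against cells in 96-well plates for 48 hours. GI50 marks 50% less growth. TGI: concentration producing complete growth inhibition.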

This assay deals with MDA-MB-468 breast. In words: inhibition of tumour cell growth, NCI panel, 48 h.
With `O=C1NC(=O)[C@@H](c2cn3c4c(cccc24)CCC3)[C@@H]1c1c[nH]c2ccccc12`, the GI50 was 0.306 µM and 0.26 µM; the TGI was > 10 µM and 3.81 µM.
For `Clc1ccc(Nc2ccnc(NCCNc3ccnc4cc(Cl)ccc34)n2)cc1`, the GI50 is 1.06 µM and the TGI is 2.34 µM.
Consider `c1ccc(Oc2c3ccccc3nc3ccccc23)cc1`, for which the GI50 was 1.35 µM and the TGI stood at 4.62 µM.
In the case of `COC(=O)/C=C1\SC(=Nc2ccc(C(F)(F)F)cc2)N(CCc2c[nH]c3ccccc23)C1=O`, the GI50 was 2.08 µM and the TGI came out at 4.05 µM.
On the same counts, the results for `Nc1nc(N)c2c(n1)NC(c1ccc(F)cc1)CC(c1ccc(Nc3nc(NCCO)nc(Nc4ccc(Cl)cc4)n3)cc1)=N2` (configuration not stated) are 1.48 µM and 3.15 µM.
Regarding `O=C1C(Cl)=C(Oc2ccccc2)C(=O)c2ccccc21`, the GI50 was 1.93 µM and the TGI was determined as 3.75 µM.
On the same counts, the results for `Clc1ccc(N2COOC3(OOC2)C2CC4CC(C2)CC3C4)cc1` are 5.8 µM and above 67.8 µM.
Regarding `Nc1nc(-c2cccc([N+](=O)[O-])c2)c(N=Nc2ccccc2[N+](=O)[O-])s1`, the GI50 is 2.7 µM and the TGI turned out to be 26.2 µM.
In the same order, the values of `O=C(Nc1cccc(NS(=O)(=O)c2ccc(F)cc2)c1)c1ccc(-c2ccccc2)cc1` are 2.18 µM and 9.56 µM.
In the same order, the values of `O=C1c2[nH]cc(CN[C@@H]3CCCN3)c2C(=O)c2c1c(O)c1ccccc1c2O` are 1.18 µM and 2.65 µM.
With `O=S(=O)(Nc1cccc2ccccc12)c1ccc(-c2cnc(C3CC3)o2)cc1`, the GI50 was 0.0432 µM and the TGI stood at 12.8 µM.
In the same order, the values of `CCN(Cc1ccc(F)cc1F)c1ccc(CO)c(Cl)c1` are 0.0159 µM and 0.0395 µM.
As for `Cc1ccc(C)c(-n2c(-c3ccc(Br)cc3)csc2=NC(=O)c2ccccc2F)c1`, the GI50 was above 100 µM and the TGI is above 100 µM.
As to `CS(=O)(=O)c1ccc(Oc2nccc(-c3c(-c4ccc(F)cc4)ncn3C3CCNCC3)n2)cc1`, the GI50 is 19.1 µM and the TGI was above 25 µM.
In the same order, the values of `O=C(Nc1ncc([N+](=O)[O-])s1)c1cccc([N+](=O)[O-])c1` are 3.42 µM and 38.7 µM.
On the same counts, the results for `COc1ccc(/C=C\c2cc(OC)c(OC)c(OC)c2)cc1NC(=O)[C@@H](N)CO` are below 0.0178 µM and 1.27 µM.
On the same counts, the results for `COc1ccc(-c2nc3sccn3c2/C=C/C(=O)c2cc(OC)c(OC)c(OC)c2)cc1OC` are 2.15 µM and 5.02 µM.
Regarding `CC(C)(C)[Si](C)(C)OC1[C@@H](O[Si](C)(C)C(C)(C)C)[C@@H](CNC(=O)NC(=O)NC(=O)CI)O[C@H]1n1cnc2c(NC(=O)Nc3ccccc3)ncnc21` (some centres not stated), the GI50 is 0.334 µM and the TGI stood at 2.06 µM.
For the compound `CCN(CC)c1ccc2[nH]c3c(C(N)=O)cc(=O)c(=O)c=3oc2c1`, the GI50 is 1.85 µM and the TGI came to 4.75 µM.
In the same order, the values of `c1ccc2c(NCCCn3ccnc3)c3oc4ccccc4c3nc2c1` are 1.66 µM and 3.42 µM.
On the same counts, the results for `COc1cc(-c2nnc(SCc3ccc(O)c4ncccc34)n2-c2ccccc2)cc(OC)c1OC` are 0.251 µM and 2.53 µM.
In the same order, the values of `O=C(CSc1nc2ccc([N+](=O)[O-])cc2[nH]1)Nc1cccc(C(F)(F)F)c1` are 0.964 µM and 4.71 µM.
Consider `Cn1cc(-c2nc(-c3c[nH]c4ncccc34)cs2)c2cc(Cl)ccc21`, for which the GI50 is 0.316 µM and the TGI was determined as 2.34 µM.
On the same counts, the results for `COc1ccc(-n2c(-c3ccc(NC(=O)CCCl)cc3)nnc2-c2cc(OC)c(OC)c(OC)c2)cc1` are 2.08 µM and 5.68 µM.
On the same counts, the results for `O=C(CCl)Nc1ccccc1SCc1cc(Cl)cc2c1OCOC2` are 1.93 µM and 4.5 µM.
In the same order, the values of `COc1ccc(/C=C/C(=O)/C=C(/C=C/c2ccc(OC)c(OC)c2)OB(F)F)cc1OC` are 0.578 µM and 2.89 µM.
